Earlier results on one molecule are cited in US5229134A, “Pharmaceutical compositions” (Laboratories Smith Kline & French, priority 1989, dated 1993).

Structures are written as SMILES.

For this data set the following is noted: plasma levels.

In the case of `CN/C(=N/CCSCc1nc[nH]c1C)NC#N` [cimetidine], the “therapeutically effective concentration in plasma” value is 0.5 mg/L.
